Data from patent publication US10202373B2, “Heteroaryls and uses thereof” (MILLENNIUM PHARMACEUTICALS, INC., priority 2014, dated 2019).

Biological target: human VPS34 (Homo sapiens (Human), UniProt Q8NEB9)
Test: Human VPS34 enzyme assay (Adapta TR-FRET)
Type: biochemical
Details: for inhibition at 1.11 µM: 1 h, inhibition of VPS34 at a 1.11 μM concentration, read-out: Percent Inhibition; for IC50: human VPS34 enzyme assay, IC50 ranges
Method: VPS34 (accession number GB:BC033004) was cloned into pDEST20-Thombin as N-terminal GST tagged fusion proteins using the Gateway system (Invitrogen, catalog#11804-013). The sequences were verified before recombinant protein expression using the Baculovirus Expression System with Gateway® Technology. For expression VPS34 was infected at 1 MOI in SF9 cells and harvested 72 hours post infection. For purification, VPS34 is purified by Glutathione Sepharose 4 Fast Flow (GE Healthcare #17-5132-03) followed by HiTrap Q (GE Healthcare #17-1153-01). Human VPS34 Enzyme Assay Method 100 nL compounds in DMSO are added to wells of a 384 well microtitre plate (Greiner 780076). At room temperature: 5 ul VPS34 reaction buffer (Invitrogen Assay Buffer Q (diluted 1 in 5 with nanopure water) plus 2 mM DTT and 2 mM MnCl2) containing ATP (20 uM, Promega) and 200 uM PI-PS substrate (Invitrogen PV5122) is added followed immediately by 5 ul VPS34 reaction buffer (as above) containing VPS34 (5 nM, Millennium Protein Sciences Group) and the mixture is incubated with shaking at room temperature for 1 hour. Then 5 ul […]-detect mix (as per Invitrogen Adapta Assay kit (PV5009) instructions (contains kinase quench buffer, TR-FRET buffer, Adapta Eu anti-ADP antibody and Alexa Fluor 647 ADP tracer)) is added to quench the reaction. The plates are then incubated for 30 minutes at room temperature with shaking and then read on a BMG PheraStar Plus reader. For the assay methods described above, test compound percent inhibition, at various concentrations, is calculated relative to control (DMSO and EDTA) treated samples. Compound concentration versus percent inhibition curves are fitted to generate IC50 values. One skilled in the art will appreciate that the values generated either as percentage inhibition at a single concentration or IC50 values are subject to experimental variation. […] Additionally, compounds of the invention that inhibit VPS34 are described with the following IC50 ranges: […]

Sequence of human VPS34 (Q8NEB9 whole entry): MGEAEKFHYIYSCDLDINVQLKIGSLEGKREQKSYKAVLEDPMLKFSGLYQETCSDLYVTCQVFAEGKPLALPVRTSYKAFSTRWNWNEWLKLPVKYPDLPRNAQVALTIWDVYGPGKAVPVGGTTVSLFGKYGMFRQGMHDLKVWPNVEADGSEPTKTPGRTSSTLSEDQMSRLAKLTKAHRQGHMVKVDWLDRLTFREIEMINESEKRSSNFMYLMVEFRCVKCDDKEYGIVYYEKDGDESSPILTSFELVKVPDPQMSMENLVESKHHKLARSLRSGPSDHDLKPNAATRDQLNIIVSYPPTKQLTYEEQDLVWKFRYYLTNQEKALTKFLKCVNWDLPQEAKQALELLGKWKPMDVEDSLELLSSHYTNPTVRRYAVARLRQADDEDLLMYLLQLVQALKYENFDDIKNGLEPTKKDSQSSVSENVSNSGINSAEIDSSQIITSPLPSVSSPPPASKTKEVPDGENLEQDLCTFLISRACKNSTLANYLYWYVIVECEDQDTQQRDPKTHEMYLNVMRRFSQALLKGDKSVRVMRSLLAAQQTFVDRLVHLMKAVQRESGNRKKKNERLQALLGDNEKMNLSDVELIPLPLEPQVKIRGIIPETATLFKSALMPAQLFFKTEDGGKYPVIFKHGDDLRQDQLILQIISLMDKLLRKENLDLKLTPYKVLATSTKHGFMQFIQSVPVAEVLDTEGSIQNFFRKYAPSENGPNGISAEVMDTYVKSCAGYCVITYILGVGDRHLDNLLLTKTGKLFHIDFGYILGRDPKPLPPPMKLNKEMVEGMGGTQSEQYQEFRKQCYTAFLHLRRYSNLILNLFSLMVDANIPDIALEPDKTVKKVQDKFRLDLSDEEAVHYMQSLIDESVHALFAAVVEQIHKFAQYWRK

| inhibition at 1.11 µM | IC50 | SMILES |
| --- | --- | --- |
| > 99% | < 10 nM | Cc1ncc(-c2ccnc(NC(=O)C3CC3(F)F)c2)c2ccn(S(C)(=O)=O)c12 (racemic) [Compound I-35, (rac)-2,2-difluoro-N-{4-[7-methyl-1-(methylsulfonyl)-1H-pyrrolo[2,3-c]pyridin-4-yl]pyridin-2-yl}cyclopropanecarboxamide] |
| > 99% | < 10 nM | COC(=O)Nc1cc(-c2cnc(OC)c3c2ccn3S(C)(=O)=O)ccn1 [Compound I-1, methyl {4-[7-methoxy-1-(methylsulfonyl)-1H-pyrrolo[2,3-c]pyridin-4-yl]pyridin-2-yl}carbamate] |
| > 99% | < 10 nM | COC(=O)Nc1cc(-c2cnc(C)c3c2ccn3S(=O)(=O)c2ccccc2)ccn1 [Compound I-2, methyl {4-[7-methyl-1-(phenylsulfonyl)-1H-pyrrolo[2,3-c]pyridin-4-yl]pyridin-2-yl}carbamate] |
| > 99% | < 10 nM | CCc1ncc(-c2ccnc(NC(C)=O)c2)c2ccn(S(C)(=O)=O)c12 [Compound I-3, N-{4-[7-ethyl-1-(methylsulfonyl)-1H-pyrrolo[2,3-c]pyridin-4-yl]pyridin-2-yl}acetamide] |
| > 99% | < 10 nM | CC(=O)Nc1cc(-c2cnc(C)c3c2ccn3S(=O)(=O)c2ccccc2)ccn1 [Compound I-4, N-{4-[7-methyl-1-(phenylsulfonyl)-1H-pyrrolo[2,3-c]pyridin-4-yl]pyridin-2-yl}acetamide] |
| > 99% | 50 to 100 nM | CC(=O)Nc1cc(-c2cnc(C)c3c2c(C)cn3S(C)(=O)=O)ccn1 [Compound I-5, N-{4-[3,7-dimethyl-1-(methylsulfonyl)-1H-pyrrolo[2,3-c]pyridin-4-yl]pyridin-2-yl}acetamide] |
| > 99% | 10 to 50 nM | COC(=O)Nc1cc(-c2cnc(C)c3c2ccn3S(=O)(=O)N(C)C)ccn1 [Compound I-6, methyl {4-[1-(dimethylsulfamoyl)-7-methyl-1H-pyrrolo[2,3-c]pyridin-4-yl]pyridin-2-yl}carbamate] |
| > 99% | < 10 nM | CC(=O)Nc1cc(-c2cnc(C)c3c2ccn3S(=O)(=O)N(C)C)ccn1 [Compound I-7, N-{4-[1-(dimethylsulfamoyl)-7-methyl-1H-pyrrolo[2,3-c]pyridin-4-yl]pyridin-2-yl}acetamide] |
| > 99% | 10 to 50 nM | CC(=O)Nc1cc(-c2cncc3c2ccn3S(=O)(=O)C2CC2)c(F)cn1 [Compound I-8, N-{4-[1-(cyclopropylsulfonyl)-1H-pyrrolo[2,3-c]pyridin-4-yl]-5-fluoropyridin-2-yl}acetamide] |
| > 99% | 10 to 50 nM | CS(=O)(=O)n1ccc2c(-c3ccnc(Nc4ncco4)c3)cncc21 [Compound I-9, 4-[1-(methylsulfonyl)-1H-pyrrolo[2,3-c]pyridin-4-yl]-N-(1,3-oxazol-2-yl)pyridin-2-amine] |
| > 99% | < 10 nM | COC(=O)Nc1cc(-c2cnc(OC)c3c2ccn3S(=O)(=O)c2ccccc2)ccn1 [Compound I-10, methyl {4-[7-methoxy-1-(phenylsulfonyl)-1H-pyrrolo[2,3-c]pyridin-4-yl]pyridin-2-yl}carbamate] |
| > 99% | 10 to 50 nM | CC(=O)Nc1cc(-c2cnc(C)c3c2ccn3S(=O)(=O)c2ccc(F)cc2F)ccn1 [Compound I-11, N-(4-{1-[(2,4-difluorophenyl)sulfonyl]-7-methyl-1H-pyrrolo[2,3-c]pyridin-4-yl}pyridin-2-yl)acetamide] |
| > 99% | 10 to 50 nM | COC(=O)Nc1cc(-c2cnc(C)c3c2ccn3S(=O)(=O)C2CCCC2)ccn1 [Compound I-12, methyl {4-[1-(cyclopentylsulfonyl)-7-methyl-1H-pyrrolo[2,3-c]pyridin-4-yl]pyridin-2-yl}carbamate] |
| > 99% | 10 to 50 nM | O=S(=O)(c1ccccc1)n1ccc2c(-c3ccnc(Nc4ncco4)c3)cncc21 [Compound I-13, N-(1,3-oxazol-2-yl)-4-[1-(phenylsulfonyl)-1H-pyrrolo[2,3-c]pyridin-4-yl]pyridin-2-amine] |
| > 99% | 10 to 50 nM | CC(=O)Nc1cc(-c2cnc(C)c3c2c(F)cn3S(=O)(=O)C2CC2)ccn1 [Compound I-14, N-{4-[1-(cyclopropylsulfonyl)-3-fluoro-7-methyl-1H-pyrrolo[2,3-c]pyridin-4-yl]pyridin-2-yl}acetamide] |
| > 99% | < 10 nM | COC(=O)Nc1cc(-c2cnc(C)c3c2ccn3S(=O)(=O)CC(C)C)ccn1 [Compound I-15, methyl {4-[1-(isobutylsulfonyl)-7-methyl-1H-pyrrolo[2,3-c]pyridin-4-yl]pyridin-2-yl}carbamate] |
| > 99% | < 10 nM | CCS(=O)(=O)n1ccc2c(-c3ccnc(NC(C)=O)c3)cnc(C)c21 [Compound I-16, N-{4-[1-(ethylsulfonyl)-7-methyl-1H-pyrrolo[2,3-c]pyridin-4-yl]pyridin-2-yl}acetamide] |
| > 99% | < 10 nM | COC(=O)Nc1cc(-c2cncc3c2ccn3S(=O)(=O)N(C)C)ccn1 [Compound I-17, methyl {4-[1-(dimethylsulfamoyl)-1H-pyrrolo[2,3-c]pyridin-4-yl]pyridin-2-yl}carbamate] |
| > 99% | 10 to 50 nM | CC(=O)Nc1cc(-c2cnc(N(C)C)c3c2ccn3S(=O)(=O)C2CC2)ccn1 [Compound I-18, N-{4-[1-(cyclopropylsulfonyl)-7-(dimethylamino)-1H-pyrrolo[2,3-c]pyridin-4-yl]pyridin-2-yl}acetamide] |
| > 99% | 50 to 100 nM | CC(=O)Nc1cc(-c2cncc3[nH]ccc23)ccn1 [Compound I-20, N-[4-(1H-pyrrolo[2,3-c]pyridin-4-yl)pyridin-2-yl]acetamide] |
| > 99% | 10 to 50 nM | CC(=O)Nc1cc(-c2cncc3c2ccn3S(C)(=O)=O)ccn1 [Compound I-21, N-{4-[1-(methylsulfonyl)-1H-pyrrolo[2,3-]pyridin-4-yl]pyridin-2-yl}acetamide] |
| > 99% | 50 to 100 nM | CC(=O)Nc1cc(-c2cncc3c2cnn3S(=O)(=O)C2CC2)ccn1 [Compound I-22, N-{4-[1-(cyclopropylsulfonyl)-1H-pyrazolo[3,4-c]pyridin-4-yl]pyridin-2-yl}acetamide] |
| > 99% | < 10 nM | CC(=O)Nc1cc(-c2cnc(C)c3c2ccn3S(=O)(=O)N2CCCC2)ccn1 [Compound I-23, N-{4-[7-methyl-1-(pyrrolidin-1-ylsulfonyl)-1H-pyrrolo[2,3-c]pyridin-4-yl]pyridin-2-yl}acetamide] |
| > 99% | 10 to 50 nM | CCc1cc2c(-c3ccnc(NC(C)=O)c3)cncc2n1S(=O)(=O)c1ccccc1 [Compound I-24, N-{4-[2-ethyl-1-(phenylsulfonyl)-1H-pyrrolo[2,3-c]pyridin-4-yl]pyridin-2-yl}acetamide] |
| > 99% | < 10 nM | CCOC(=O)Nc1cc(-c2cncc3c2ccn3S(C)(=O)=O)ccn1 [Compound I-25, ethyl {4-[1-(methylsulfonyl)-1H-pyrrolo[2,3-c]pyridin-4-yl]pyridin-2-yl}carbamate] |
| > 99% | 10 to 50 nM | O=C(Cc1nnn[nH]1)Nc1cc(-c2cncc3c2ccn3S(=O)(=O)C2CC2)ccn1 [Compound I-27, N-{4-[1-(cyclopropylsulfonyl)-1H-pyrrolo[2,3-c]pyridin-4-yl]pyridin-2-yl}-2-(1H-tetrazol-5-yl)acetamide] |
| > 99% | 10 to 50 nM | COC(=O)Nc1cc(-c2cncc3c2ccn3S(=O)(=O)c2ccccc2)ccn1 [Compound I-28, methyl {4-[1-(phenylsulfonyl)-1H-pyrrolo[2,3-c]pyridin-4-yl]pyridin-2-yl}carbamate] |
| > 99% | 10 to 50 nM | COC(=O)Nc1cc(-c2cncc3c2ccn3S(C)(=O)=O)ccn1 [Compound I-29, methyl {4-[1-(methylsulfonyl)-1H-pyrrolo[2,3-c]pyridin-4-yl]pyridin-2-yl}carbamate] |
| 99% | 10 to 50 nM | COC(=O)Nc1cc(-c2cncc3c2ccn3S(=O)(=O)C2CC2)ccn1 [Compound I-30, methyl {4-[1-(cyclopropylsulfonyl)-1H-pyrrolo[2,3-c]pyridin-4-yl]pyridin-2-yl}carbamate] |
| > 99% | 10 to 50 nM | CC(=O)Nc1cc(-c2cncc3c2cc(C)n3S(=O)(=O)c2ccccc2)ccn1 [Compound I-31, N-{4-[2-methyl-1-(phenylsulfonyl)-1H-pyrrolo[2,3-c]pyridin-4-yl]pyridin-2-yl}acetamide] |
